Results: ChEMBL document CHEMBL5252541, “Repurposing antipsychotic drugs into antifungal agents: Synergistic combinations of azoles and bromperidol derivatives in the treatment of various fungal infections” (Eur J Med Chem, 2017)

Key:
Candida albicans [1] = assay: Synergistic antifungal activity against Candida albicans ATCC 10231 assessed as fluconazole MIC measured after 48 hrs by checkboard based microplate reader analysis; format: functional
Candida albicans [2] = assay: Antifungal activity against Candida albicans ATCC 64124 measured after 48 hrs by broth microdilution analysis; format: functional
Candida albicans [3] = assay: Antifungal activity against Candida albicans ATCC 10231 measured after 48 hrs by broth microdilution analysis; format: functional
Candida albicans [4] = assay: Synergistic antifungal activity against Candida albicans ATCC 10231 assessed as compound MIC measured after 48 hrs in presence of fluconazole by checkboard based microplate reader analysis; format: functional
Candida albicans [5] = assay: Synergistic antifungal activity against Candida albicans ATCC 64124 assessed as compound MIC measured after 48 hrs in presence of posaconazole by checkboard based microplate reader analysis; format: functional
Candida albicans [6] = assay: Synergistic antifungal activity against Candida albicans ATCC 10231 assessed as compound MIC measured after 48 hrs in presence of posaconazole by checkboard based microplate reader analysis; format: functional
Candida albicans [7] = assay: Synergistic antifungal activity against Candida albicans ATCC 64124 assessed as compound MIC measured after 48 hrs in presence of ketoconazole by checkboard based microplate reader analysis; format: functional
Candida albicans [8] = assay: Synergistic antifungal activity against Candida albicans ATCC 10231 assessed as compound MIC measured after 48 hrs in presence of ketoconazole by checkboard based microplate reader analysis; format: functional
Candida albicans [9] = assay: Synergistic antifungal activity against Candida albicans ATCC 64124 assessed as compound MIC measured after 48 hrs in presence of itraconazole by checkboard based microplate reader analysis; format: functional
Candida albicans [10] = assay: Synergistic antifungal activity against Candida albicans ATCC 10231 assessed as compound MIC measured after 48 hrs in presence of itraconazole by checkboard based microplate reader analysis; format: functional
Candida albicans [11] = assay: Synergistic antifungal activity against Candida albicans ATCC 64124 assessed as compound MIC measured after 48 hrs in presence of fluconazole by checkboard based microplate reader analysis; format: functional
Candida albicans [12] = assay: Antifungal activity against Candida albicans ATCC MYA-1237 measured after 48 hrs by broth microdilution analysis; format: functional
Nakaseomyces glabratus [13] = assay: Antifungal activity against Candida glabrata ATCC 2001 measured after 48 hrs by broth microdilution analysis; format: functional
Candida albicans [14] = assay: Synergistic antifungal activity against Candida albicans ATCC 10231 assessed as compound MIC measured after 48 hrs in presence of voriconazole by checkboard based microplate reader analysis; format: functional
Candida albicans [15] = assay: Synergistic antifungal activity against Candida albicans ATCC 64124 assessed as compound MIC measured after 48 hrs in presence of voriconazole by checkboard based microplate reader analysis; format: functional
Candida albicans [16] = assay: Additive antifungal activity against Candida albicans ATCC 10231 assessed as fractional inhibitory concentration index measured for 72 hrs in presence of fluconazole; format: functional
Candida albicans [17] = assay: Additive antifungal activity against Candida albicans ATCC 64124 assessed as fractional inhibitory concentration index measured for 72 hrs in presence of fluconazole; format: functional
Candida albicans [18] = assay: Additive antifungal activity against Candida albicans ATCC 10231 assessed as fractional inhibitory concentration index measured for 72 hrs in presence of itraconazole; format: functional
Candida albicans [19] = assay: Additive antifungal activity against Candida albicans ATCC 64124 assessed as fractional inhibitory concentration index measured for 72 hrs in presence of itraconazole; format: functional
Candida albicans [20] = assay: Partial synergistic antifungal activity against Candida albicans ATCC 64124 assessed as fractional inhibitory concentration index measured for 72 hrs in presence of voriconazole; format: functional
Candida albicans [21] = assay: Partial synergistic antifungal activity against Candida albicans ATCC 10231 assessed as fractional inhibitory concentration index measured for 72 hrs in presence of ketoconazole; format: functional
Candida albicans [22] = assay: Partial synergistic antifungal activity against Candida albicans ATCC 64124 assessed as fractional inhibitory concentration index measured for 72 hrs in presence of ketoconazole; format: functional
Candida albicans [23] = assay: Antifungal activity against Candida albicans ATCC MYA-1003 measured after 48 hrs by broth microdilution analysis; format: functional
Candida albicans [24] = assay: Antifungal activity against Candida albicans ATCC MYA-2310 measured after 48 hrs by broth microdilution analysis; format: functional
Candida albicans [25] = assay: Antifungal activity against Candida albicans ATCC MYA-2876 measured after 48 hrs by broth microdilution analysis; format: functional
Candida albicans [26] = assay: Antifungal activity against Candida albicans ATCC 90819 measured after 48 hrs by broth microdilution analysis; format: functional
Aspergillus terreus [27] = assay: Antifungal activity against Aspergillus terreus ATCC MYA-3633 measured after 48 hrs by broth microdilution analysis; format: functional
Candida albicans [28] = assay: Additive antifungal activity against Candida albicans ATCC MYA-1237 assessed as fractional inhibitory concentration index measured for 72 hrs in presence of posaconazole; format: functional
Candida albicans [29] = assay: Additive antifungal activity against Candida albicans ATCC MYA-1237 assessed as fractional inhibitory concentration index measured for 72 hrs in presence of voriconazole; format: functional
Candida albicans [30] = assay: Additive antifungal activity against Candida albicans ATCC MYA-2310 assessed as fractional inhibitory concentration index measured for 72 hrs in presence of posaconazole; format: functional
Candida albicans [31] = assay: Additive antifungal activity against Candida albicans ATCC MYA-2310 assessed as fractional inhibitory concentration index measured for 72 hrs in presence of voriconazole; format: functional
Candida albicans [32] = assay: Additive antifungal activity against Candida albicans ATCC MYA-2876 assessed as fractional inhibitory concentration index measured for 72 hrs in presence of posaconazole; format: functional
Candida albicans [33] = assay: Additive antifungal activity against Candida albicans ATCC MYA-2876 assessed as fractional inhibitory concentration index measured for 72 hrs in presence of voriconazole; format: functional
Candida albicans [34] = assay: Additive antifungal activity against Candida albicans ATCC 90819 assessed as fractional inhibitory concentration index measured for 72 hrs in presence of posaconazole; format: functional
Candida albicans [35] = assay: Additive antifungal activity against Candida albicans ATCC 90819 assessed as fractional inhibitory concentration index measured for 72 hrs in presence of voriconazole; format: functional
Nakaseomyces glabratus [36] = assay: Additive antifungal activity against Candida glabrata ATCC 2001 assessed as fractional inhibitory concentration index measured for 72 hrs in presence of posaconazole; format: functional
Nakaseomyces glabratus [37] = assay: Additive antifungal activity against Candida glabrata ATCC 2001 assessed as fractional inhibitory concentration index measured for 72 hrs in presence of voriconazole; format: functional
Aspergillus terreus [38] = assay: Additive antifungal activity against Aspergillus terreus ATCC MYA-3633 assessed as fractional inhibitory concentration index measured for 72 hrs in presence of voriconazole; format: functional
Nakaseomyces glabratus [39] = assay: Synergistic antifungal activity against Candida glabrata ATCC 2001 assessed as fractional inhibitory concentration index measured for 72 hrs in presence of posaconazole; format: functional
Candida albicans [40] = assay: Additive antifungal activity against Candida albicans MYA-1003 assessed as fractional inhibitory concentration index measured for 72 hrs in presence of voriconazole
Candida albicans [41] = assay: Additive antifungal activity against Candida albicans ATCC 64124 assessed as fractional inhibitory concentration index measured for 72 hrs in presence of ketoconazole; format: functional
Candida albicans [42] = assay: Partial synergistic antifungal activity against Candida albicans ATCC 10231 assessed as fractional inhibitory concentration index measured for 72 hrs in presence of posaconazole; format: functional
Candida albicans [43] = assay: Synergistic antifungal activity against Candida albicans ATCC 64124 assessed as fractional inhibitory concentration index measured for 72 hrs in presence of posaconazole; format: functional
Candida albicans [44] = assay: Partial synergistic antifungal activity against Candida albicans ATCC 10231 assessed as fractional inhibitory concentration index measured for 72 hrs in presence of voriconazole; format: functional
Aspergillus terreus [45] = assay: Additive antifungal activity against Aspergillus terreus ATCC MYA-3633 assessed as fractional inhibitory concentration index measured for 72 hrs in presence of posaconazole; format: functional
Candida albicans [46] = assay: Additive antifungal activity against Candida albicans MYA-1003 assessed as fractional inhibitory concentration index measured for 72 hrs in presence of posaconazole
Candida albicans [47] = assay: Synergistic antifungal activity against Candida albicans ATCC 64124 assessed as fluconazole MIC measured after 48 hrs by checkboard based microplate reader analysis; format: functional

## O=C(CCCN1CCC(O)(c2ccc(Br)cc2)CC1)c1ccc(Br)cc1
Candida albicans [1]
  MIC: > 32 µg/mL
Candida albicans [2]
  MIC: > 64 µg/mL
Candida albicans [3]
  MIC: > 64 µg/mL
Candida albicans [4]
  MIC: > 64 µg/mL
Candida albicans [5]
  MIC: 16 µg/mL
Candida albicans [6]
  MIC: 32 µg/mL
Candida albicans [7]
  MIC: 1 µg/mL
Candida albicans [8]
  MIC: 1 µg/mL
Candida albicans [9]
  MIC: > 64 µg/mL
Candida albicans [10]
  MIC: 64 µg/mL
Candida albicans [11]
  MIC: > 64 µg/mL
Candida albicans [12]
  MIC: > 64 µg/mL
Nakaseomyces glabratus [13]
  MIC: > 64 µg/mL
Candida albicans [14]
  MIC: 32 µg/mL
Candida albicans [15]
  MIC: 32 µg/mL
Candida albicans [16]
  fractional inhibitory concentration index (FICI): 2
Candida albicans [17]
  fractional inhibitory concentration index (FICI): 2
Candida albicans [18]
  fractional inhibitory concentration index (FICI): 1.5
Candida albicans [19]
  fractional inhibitory concentration index (FICI): 2
Candida albicans [20]
  fractional inhibitory concentration index (FICI): 0.63
Candida albicans [21]
  fractional inhibitory concentration index (FICI): 0.52
Candida albicans [22]
  fractional inhibitory concentration index (FICI): 0.52
Candida albicans [23]
  MIC: > 64 µg/mL
Candida albicans [24]
  MIC: > 64 µg/mL
Candida albicans [25]
  MIC: > 64 µg/mL
Candida albicans [26]
  MIC: > 64 µg/mL
Aspergillus terreus [27]
  MIC: > 64 µg/mL
Candida albicans [28]
  fractional inhibitory concentration index (FICI): 2
Candida albicans [29]
  fractional inhibitory concentration index (FICI): 2
Candida albicans [30]
  fractional inhibitory concentration index (FICI): 2
Candida albicans [31]
  fractional inhibitory concentration index (FICI): 2
Candida albicans [32]
  fractional inhibitory concentration index (FICI): 2
Candida albicans [33]
  fractional inhibitory concentration index (FICI): 2
Candida albicans [34]
  fractional inhibitory concentration index (FICI): 2
Candida albicans [35]
  fractional inhibitory concentration index (FICI): 2
Nakaseomyces glabratus [36]
  fractional inhibitory concentration index (FICI): 0.38
Nakaseomyces glabratus [37]
  fractional inhibitory concentration index (FICI): 2
Aspergillus terreus [38]
  fractional inhibitory concentration index (FICI): 2
Nakaseomyces glabratus [39]
  fractional inhibitory concentration index (FICI): 0.38
Candida albicans [40]
  fractional inhibitory concentration index (FICI): 2

## O=C(CCCN1CCC(O)(c2ccc(Br)cc2)CC1)c1ccccc1
Candida albicans [2]
  MIC: > 64 µg/mL
Candida albicans [3]
  MIC: > 64 µg/mL
Candida albicans [4]
  MIC: 64 µg/mL
Candida albicans [5]
  MIC: 8 µg/mL
Candida albicans [6]
  MIC: 16 µg/mL
Candida albicans [7]
  MIC: 32 µg/mL
Candida albicans [8]
  MIC: > 64 µg/mL
Candida albicans [9]
  MIC: > 64 µg/mL
Candida albicans [10]
  MIC: 64 µg/mL
Candida albicans [11]
  MIC: > 64 µg/mL
Candida albicans [12]
  MIC: > 64 µg/mL
Nakaseomyces glabratus [13]
  MIC: > 64 µg/mL
Candida albicans [14]
  MIC: 8 µg/mL
Candida albicans [15]
  MIC: 32 µg/mL
Candida albicans [16]
  fractional inhibitory concentration index (FICI): 2
Candida albicans [17]
  fractional inhibitory concentration index (FICI): 2
Candida albicans [18]
  fractional inhibitory concentration index (FICI): 1.5
Candida albicans [19]
  fractional inhibitory concentration index (FICI): 2
Candida albicans [41]
  fractional inhibitory concentration index (FICI): 1
Candida albicans [42]
  fractional inhibitory concentration index (FICI): 0.75
Candida albicans [43]
  fractional inhibitory concentration index (FICI): 0.19
Candida albicans [44]
  fractional inhibitory concentration index (FICI): 0.63
Candida albicans [20]
  fractional inhibitory concentration index (FICI): 0.75
Candida albicans [23]
  MIC: > 64 µg/mL
Candida albicans [24]
  MIC: > 64 µg/mL
Candida albicans [25]
  MIC: > 64 µg/mL
Candida albicans [26]
  MIC: > 64 µg/mL
Aspergillus terreus [27]
  MIC: > 64 µg/mL
Candida albicans [30]
  fractional inhibitory concentration index (FICI): 1.01
Candida albicans [31]
  fractional inhibitory concentration index (FICI): 2
Candida albicans [32]
  fractional inhibitory concentration index (FICI): 2
Candida albicans [33]
  fractional inhibitory concentration index (FICI): 2
Candida albicans [34]
  fractional inhibitory concentration index (FICI): 1
Candida albicans [35]
  fractional inhibitory concentration index (FICI): 1
Nakaseomyces glabratus [36]
  fractional inhibitory concentration index (FICI): 0.56
Nakaseomyces glabratus [37]
  fractional inhibitory concentration index (FICI): 1.01
Aspergillus terreus [45]
  fractional inhibitory concentration index (FICI): 1.25
Aspergillus terreus [38]
  fractional inhibitory concentration index (FICI): 2
Candida albicans [40]
  fractional inhibitory concentration index (FICI): 1.06
Candida albicans [46]
  fractional inhibitory concentration index (FICI): 1.03

## OC(Cn1cncn1)(Cn1cncn1)c1ccc(F)cc1F [FLUCONAZOLE]
Candida albicans [47]
  MIC: > 32 µg/mL
Candida albicans [1]
  MIC: > 32 µg/mL
Candida albicans [2]
  MIC: > 32 µg/mL
Candida albicans [3]
  MIC: > 32 µg/mL
